Source: patent publication US20260060910A1, “COMPOSITION FOR ACTIVATING EXTERNAL BARRIER” (Yuki Gosei Kogyo Co., Ltd., priority 2024, published 2026)

Test system: miRNA contained in exosomes secreted from C2C12 cells
Conditions: exosomes from β-alanine-treated C2C12 cells vs control; microarray; FIG. 4
Description: In this example, miRNAs in exosomes were analyzed by microarray.
The exosome solution purified in Example 2 was used for microarray analysis. The microarray experiment was outsourced to Kamakura Techno Science (Kanagawa, Japan). Based on the data obtained, samples with a ratio of 1.5 or more compared to the control and one of the signal values of two samples exceeding 100 were extracted as miRNAs with altered transcription levels.

NCCC(=O)O [β-alanine]
number of miRNAs decreased: 14
number of miRNAs increased: six
